pIC50: −log10 of the molar value. Like-named read-outs stand apart in the source and are kept apart here. No end group written: not given here.
Experiments:
Experiment in all cases: biochemical
DR1 (DRB1*0101) = DR1 (DRB1*0101) (Homo sapiens, UniProt P01903+P01911, A100R/D57E/F55L/F60I/F76Y/I96L/L162R/M171V/P40L/Q125E/R42F/V115G/Y59C); type: binding
DR4w4 (DRB1*0401) = DR4w4 (DRB1*0401) (Homo sapiens, UniProt P01903+P01911, A100K/A169T/F76Y/I96L/K127E/L162R/M171V/N62H/P40V/Q125Y/R42H/S133A/S149N/S66Y/V115G/V209L/W38E); type: binding
DR7 (DRB1*0701) = DR7 (DRB1*0701) (Homo sapiens, UniProt P01903+P01911, A100R/A102G/A103Q/D57E/D86V/E43K/F76Y/K127E/L162R/M171V/P40G/Q125H/Q99D/R33Q/R42Y/R54Q/S133A/S66F/T210M/V115G/Y107V/Y59L/Y89S); type: binding
DRB1*0405 = DRB1*0405 (Homo sapiens, UniProt P01903+P01911, A100R/A169T/D86S/F76Y/I96L/K127E/L162R/M171V/N62H/P40V/Q125Y/R42H/S133A/S149N/S66Y/V115G/V209L/W38E); type: binding
DRB1*0802 = DRB1*0802 (Homo sapiens, UniProt P01903+P01911, A100R/A103L/A169T/F76Y/H45Y/I96F/K41T/L162R/M171V/P40S/Q125H/Q178H/Q39Y/Q99D/R218S/R42G/S66Y/V115G/W38E); type: binding
DRB1*0901 = DRB1*0901 (Homo sapiens, UniProt P01903+P01911, A100R/A103E/D57H/D86V/F55Y/F60I/F76Y/I96F/K127E/L162R/M171V/P40D/Q125H/Q99R/R33Q/R42F/S133A/S66N/T210M/V115G/W38K/Y107V/Y59G/Y89S); type: binding
DRB1*1501 = DRB1*1501 (Homo sapiens, UniProt P01903+P01911); type: binding
DRB4*0101 = DRB4*0101 (Homo sapiens, UniProt P01903+P13762, G164S); type: binding
DRB1*1101 = DRB1*1101 (Homo sapiens, UniProt P01903+P01911, A100R/A169T/A87E/I96F/K41T/L162R/M171V/P40S/Q125H/Q178H/Q39Y/Q99D/R42S/S66Y/T262R/V115G/W38E); details: Binding affinity DRB1 *1101
DRB5*0101 = DRB5*0101 (Homo sapiens, UniProt P01903+Q30154)
DRB1*1302 = DRB1*1302 (Homo sapiens, UniProt P01903+P01911, A100E/A169T/K41T/L162R/M171V/P40S/Q125H/Q178H/Q39Y/Q99D/R42S/S66N/T262R/V115G/W38E/Y61H); type: binding
Sequence of DRB1*1302 (P01903 26-254 limits assumed, other chains not shown): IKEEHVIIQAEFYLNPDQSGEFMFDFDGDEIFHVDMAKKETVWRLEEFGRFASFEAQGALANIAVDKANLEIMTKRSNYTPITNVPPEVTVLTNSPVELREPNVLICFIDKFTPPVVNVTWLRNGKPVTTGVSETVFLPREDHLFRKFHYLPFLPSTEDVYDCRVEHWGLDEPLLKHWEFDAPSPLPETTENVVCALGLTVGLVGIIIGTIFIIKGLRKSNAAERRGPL

Sequence of DRB1*1101 (P01903 26-254 limits assumed, other chains not shown): as above

Compound | pIC50 (DR1 (DRB1*0101)) | pIC50 (DR4w4 (DRB1*0401)) | pIC50 (DR7 (DRB1*0701)) | pIC50 (DRB1*0405) | pIC50 (DRB1*0802) | pIC50 (DRB1*0901) | pIC50 (DRB1*1501) | pIC50 (DRB4*0101) | pIC50 (DRB1*1101) | pIC50 (DRB5*0101; Binding affinity DRB5 *0101) | pIC50 (DRB1*1302) | pIC50 (DRB5*0101)
CC[C@H](C)[C@H](NC(=O)[C@H](C)NC(=O)[C@H](CCCCN)NC(=O)[C@@H](N)Cc1c[nH]cn1)C(=O)N[C@@H](CCC(=O)O)C(=O)N[C@@H](CC(C)C)C(=O)N[C@@H](CCC(N)=O)C(=O)N[C@@H](CCSC)C(=O)N[C@@H](C)C(=O)N[C@@H](CC(C)C)C(=O)N[C@@H](CCC(N)=O)C(=O)NCC(=O)N[C@@H](CC(C)C)C(=O)N[C@@H](C)C(=O)N[C@@H](CCC(N)=O)C(=O)O [Peptide 89.0160] | < 4.70 | 6.46 | < 4.70 | < 4.70 | < 4.70 | < 4.70 | 5.89 | 5.46 | 4.77 | < 4.70 | – | –
CWTYFDNYMRNALDG [Peptide 89.0090] | – | 5.45 | 5.54 | 5.31 | 5.43 | < 4.70 | – | 5.69 | < 4.70 | – | < 4.70 | –
ELQMALETLSKSQYS [Peptide 89.0183] | 7.10 | 6.36 | 5.50 | 5.48 | – | 6.69 | – | < 4.70 | – | 4.97 | 5.37 | –
ESDMAFQYAQLADCN [Peptide 89.0085] | 7.96 | 6.63 | 5.49 | 4.71 | 5.23 | – | 5.13 | 7.32 | 4.70 | 5.11 | 6.65 | –
ETHMVIEPPKLRSAT [Peptide 89.0103] | – | 6.11 | < 4.70 | 5.45 | 4.91 | < 4.70 | – | 5.41 | 5.49 | 5.54 | 5.84 | –
HALFTAQEAKQHRDA [Peptide 89.0001] | – | 6.69 | < 4.70 | 5.32 | – | < 4.70 | < 4.70 | < 4.70 | < 4.70 | 5.15 | < 4.70 | –
HQVVPALSVSKAKAL [Peptide 89.0169] | 7.00 | 6.40 | 5.33 | 4.81 | < 4.70 | 5.79 | < 4.70 | < 4.70 | < 4.70 | < 4.70 | – | –
HQVVPPMAVSKAKAC [Peptide 90.0012] | 6.17 | 5.63 | 6.36 | < 4.70 | – | – | < 4.70 | 6.19 | 5.15 | 5.24 | 6.04 | –
HQVVPSLVASKTKAF [Peptide 90.0023] | < 4.70 | < 4.70 | 5.56 | < 4.70 | < 4.70 | < 4.70 | < 4.70 | < 4.70 | < 4.70 | < 4.70 | – | –
IAYYYAQLADSNSNA [Peptide 89.0072] | 6.42 | 6.12 | – | 5.31 | 5.11 | 5.51 | 7.01 | 5.62 | < 4.70 | < 4.70 | < 4.70 | –
ILLYGAANTGKSLFG [Peptide 89.0018] | 6.64 | 6.82 | 5.21 | < 4.70 | 5.76 | < 4.70 | – | 5.30 | 5.56 | 5.80 | 5.57 | –
ITHIGHQVVPPMAVS [Peptide 90.0010] | 7.30 | 6.63 | 5.30 | 4.77 | 4.91 | < 4.70 | 5.00 | 5.91 | < 4.70 | < 4.70 | – | –
LIQLKCPPILLTTNI [Peptide 89.0038] | 7.82 | 5.42 | 6.00 | 5.40 | – | < 4.70 | 5.17 | 6.80 | < 4.70 | < 4.70 | < 4.70 | –
LKEFLKGTPKKNCIL [Peptide 89.0086] | – | 5.79 | 5.26 | 4.83 | 5.49 | 4.92 | 5.11 | 5.62 | – | 5.33 | 5.18 | –
LLQLKCPPILLTSNI [Peptide 89.0091] | 7.43 | 5.84 | 6.21 | < 4.70 | 5.14 | < 4.70 | – | 6.91 | < 4.70 | < 4.70 | – | –
LNTVKIPPTVQISTG [Peptide 90.0028] | 5.06 | < 4.70 | < 4.70 | < 4.70 | < 4.70 | 5.16 | – | < 4.70 | < 4.70 | < 4.70 | 6.11 | –
LVQLKCPPLLLTSNT [Peptide 89.0077] | 7.29 | 5.40 | 5.96 | 5.46 | – | 4.93 | 6.11 | 6.51 | 4.75 | 5.35 | 5.70 | –
QEQMLIQPPKIRSPA [Peptide 89.0124] | < 4.70 | 6.00 | 5.14 | 5.09 | < 4.70 | – | < 4.70 | 5.79 | – | – | < 4.70 | –
QQLLQVQTAHADKQT [Peptide 89.0115] | 5.95 | 5.26 | < 4.70 | < 4.70 | < 4.70 | < 4.70 | 4.98 | 6.03 | – | – | < 4.70 | 7.07
RDSVDSAPILTAFNS [Peptide 89.0156] | 5.13 | 7.70 | 6.47 | < 4.70 | < 4.70 | – | 5.32 | 5.88 | 5.15 | < 4.70 | 7.60 | –
SRVIVCPTSIPSDQI [Peptide 90.0027] | < 4.70 | 5.72 | < 4.70 | 5.21 | – | < 4.70 | < 4.70 | < 4.70 | < 4.70 | < 4.70 | 5.70 | –
SWGMVVLLLVRYKCG [Peptide 89.0005] | – | 5.33 | – | 6.40 | < 4.70 | 6.11 | 5.38 | 5.38 | 5.68 | < 4.70 | – | –
TLAVSKNKALQAIEL [Peptide 89.0150] | – | < 4.70 | < 4.70 | 5.78 | < 4.70 | 5.28 | < 4.70 | 7.44 | < 4.70 | < 4.70 | – | –
TYGVSFMELVRPFKS [Peptide 89.0095] | – | < 4.70 | 5.12 | < 4.70 | < 4.70 | < 4.70 | 6.23 | 6.41 | – | 5.04 | 6.22 | –
